Experimental data: US20250108038A1 (priority 2023, published 2025)
Values joined by “and” are separate entries in the source; they are usually repeats but may differ in a detail not shown here. Equal entries are not always repeated.

Assay: Pharmacokinetics after single oral administration to beagle dogs;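 on AUC0-inf of Compound A (as titled): compound A is measured in plasma as a metabolite of the dosed analog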;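 on AUC0-last of Compound A (as titled): compound A is measured in plasma as a metabolite of the dosed analog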;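 on Tlast of Compound A (as titled): compound A is measured in plasma as a metabolite of the dosed analog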;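 on Tmax of Compound A (as titled): compound A is measured in plasma as a metabolite of the dosed analog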
Assay type: in vivo
Description: The concentrations of the analytes in the plasma were quantified by liquid chromatography tandem mass spectrometry (LC-MS/MS).
The bioanalytical assay provided a lower limit of quantification (LLOQ) of 1.0 ng/mL and an upper limit of quantification (ULOQ) of 3000 ng/mL for all the analytes. The data of plasma concentration vs. time were analyzed using Phoenix WinNonlin 8.3 to determine the PK properties of the analytes.
The test articles were administered orally by gavage. The nominal dose volume was 5 mL/kg for both analogs.
The observation included appearance, behavior, morbidity and mortality.
Approximately 0.5 mL blood was collected at each scheduled time point from the peripheral veins.
The plasma samples were placed in microcentrifuge tubes and stored at −70+10° C. until analysis.

[1] = after single PO 10 mg/kg of Compound I-17/I-19, female individual
[2] = after single PO 10 mg/kg of Compound I-17/I-19, female individual, 10 mg/kg
[3] = after single PO 10 mg/kg of Compound I-17/I-19, female mean
[4] = after single PO 10 mg/kg of Compound I-17/I-19, male individual
[5] = after single PO 10 mg/kg of Compound I-17/I-19, male individual, 10 mg/kg
[6] = after single PO 10 mg/kg of Compound I-17/I-19, male mean
[7] = after single PO 80 mg/kg (so in the source) of Compound I-17/I-19, female individual, 80 mg/kg
[8] = after single PO 80 mg/kg (so in the source) of Compound I-17/I-19, female mean
[9] = after single PO 80 mg/kg (so in the source) of Compound I-17/I-19, male individual
[10] = after single PO 80 mg/kg (so in the source) of Compound I-17/I-19, male individual, 80 mg/kg
[11] = after single PO 80 mg/kg (so in the source) of Compound I-17/I-19, male mean

## Clc1ccc(C2(OCC3OCCO3)c3ccccc3C3=NCCN32)cc1 (centres unmarked) [Compound I-19]
[1]
  Tlast of Compound A (as titled): 8.00 h
  Tmax of Compound A (as titled): 1.00 h
[2]
  AUC0-inf of Compound A (as titled): 786 ng·h/mL and 1047 ng·h/mL
  AUC0-last of Compound A (as titled): 739 ng·h/mL and 932 ng·h/mL
  Cmax of Compound A (as titled): 258 ng/mL and 262 ng/mL
  MRT0-inf of Compound A (as titled): 2.82 h and 3.68 h
  MRT0-last of Compound A (as titled): 2.29 h and 2.65 h
  T1/2 of Compound A (as titled): 2.23 h and 2.77 h
[3]
  AUC0-inf of Compound A (as titled): 916 ng·h/mL
  AUC0-last of Compound A (as titled): 836 ng·h/mL
  Cmax of Compound A (as titled): 260 ng/mL
  MRT0-inf of Compound A (as titled): 3.25 h
  MRT0-last of Compound A (as titled): 2.47 h
  T1/2 of Compound A (as titled): 2.50 h
  Tlast of Compound A (as titled): 8.00 h
  Tmax of Compound A (as titled): 1.00 h
[4]
  Tlast of Compound A (as titled): 8.00 h
  Tmax of Compound A (as titled): 1.00 h
[5]
  AUC0-inf of Compound A (as titled): 843 ng·h/mL and 756 ng·h/mL
  AUC0-last of Compound A (as titled): 801 ng·h/mL and 737 ng·h/mL
  Cmax of Compound A (as titled): 312 ng/mL and 281 ng/mL
  MRT0-inf of Compound A (as titled): 2.72 h and 2.50 h
  MRT0-last of Compound A (as titled): 2.29 h and 2.31 h
  T1/2 of Compound A (as titled): 1.93 h and 1.39 h
[6]
  AUC0-inf of Compound A (as titled): 799 ng·h/mL
  AUC0-last of Compound A (as titled): 769 ng·h/mL
  Cmax of Compound A (as titled): 297 ng/mL
  MRT0-inf of Compound A (as titled): 2.61 h
  MRT0-last of Compound A (as titled): 2.30 h
  T1/2 of Compound A (as titled): 1.66 h
  Tlast of Compound A (as titled): 8.00 h
  Tmax of Compound A (as titled): 1.00 h
After single PO 80 mg/kg (so in the source) of Compound I-17/I-19, female individual
  Tlast of Compound A: 24.0 h
[7]
  AUC0-inf of Compound A: 982 ng·h/mL and 1387 ng·h/mL
  AUC0-last of Compound A: 919 ng·h/mL and 1108 ng·h/mL
  Cmax of Compound A: 160 ng/mL and 113 ng/mL
  MRT0-inf of Compound A: 7.98 h and 14.9 h
  MRT0-last of Compound A: 6.23 h and 8.76 h
  T1/2 of Compound A: 6.54 h and 10.7 h
  Tmax of Compound A: 0.500 h and 2.00 h
[8]
  AUC0-inf of Compound A: 1185 ng·h/mL
  AUC0-last of Compound A: 1013 ng·h/mL
  Cmax of Compound A: 137 ng/mL
  MRT0-inf of Compound A: 11.5 h
  MRT0-last of Compound A: 7.49 h
  T1/2 of Compound A: 8.61 h
  Tlast of Compound A: 24.0 h
  Tmax of Compound A: 1.25 h
[9]
  Tlast of Compound A: 24.0 h
  Tmax of Compound A: 1.00 h
[10]
  AUC0-inf of Compound A: 1022 ng·h/mL and 661 ng·h/mL
  AUC0-last of Compound A: 958 ng·h/mL and 622 ng·h/mL
  Cmax of Compound A: 136 ng/mL and 111 ng/mL
  MRT0-inf of Compound A: 8.63 h and 7.66 h
  MRT0-last of Compound A: 7.01 h and 6.08 h
  T1/2 of Compound A: 6.05 h and 6.28 h
[11]
  AUC0-inf of Compound A: 841 ng·h/mL
  AUC0-last of Compound A: 790 ng·h/mL
  Cmax of Compound A: 123 ng/mL
  MRT0-inf of Compound A: 8.14 h
  MRT0-last of Compound A: 6.54 h
  T1/2 of Compound A: 6.16 h
